Measured values from patent US7732658B2, “Composition and method for imaging cells” (Dana Farber Cancer Institute, Inc., priority 2002, dated 2010).

Key:
32D/p210-Luc cells = assay: CML model, 32D/p210-Luc cells imaged in vivo; set-up: species or system mice
Text: FIG. 21 is a representation showing the results of a CML model used to evaluate the ABL-inhibitor AMN107.

TS(4;11)-LucNeo cells = assay: in vivo bioluminescence imaging of mice bearing MLL leukemia cell line TS(4;11), drug treatment
Text: FIG. 15 is a pictorial representation of treatment of mice bearing MLL leukemia cell line TS(4;11) with the FLT3 inhibitor PKC-412.

[1] = test system: multiple myeloma (MM) model; assay: multiple myeloma (MM) model, cells selected for growth in bone; assay type: in vivo
Text: FIG. 19 is a representation of the results of generating a multiple myeloma (MM) model, that was created by selecting cells with affinity for growth in bone.

**Q.** With `Cc1cn(-c2cc(NC(=O)c3ccc(C)c(Nc4nccc(-c5cccnc5)n4)c3)cc(C(F)(F)F)c2)cn1` [AMN107] as the compound, how does the “tumor cell growth of 32D/p210-Luc cells (quantitative)” value (32D/p210-Luc cells; FIG. 22) read?
**A.** Its value is “inhibits tumor cell growth”.

**Q.** And the “efficacy against 32D/p210-Luc cells in vivo (qualitative)” value (32D/p210-Luc cells; five animals, nine day assay, FIG. 21)?
**A.** Its value is “efficacious”.

**Q.** For `CO[C@@H]1[C@H](N(C)C(=O)c2ccccc2)C[C@H]2O[C@]1(C)n1c3ccccc3c3c4c(c5c6ccccc6n2c5c31)C(=O)NC4` [PKC-412], which tumor cell size (TS(4;11)-LucNeo cells; mice bearing TS(4;11) MLL cells, FIG. 16 left graph) is on record?
**A.** The tumor cell size was “reduces tumor cell size”.

**Q.** And the “bioluminescent flux as compared to controls” value (TS(4;11)-LucNeo cells; nude mice, TS(4;11)-LucNeo cells, 150 mg/kg/day over a two week period)?
**A.** The value was “constant bioluminescent flux”.

**Q.** What does the source list for `Nc1ncnc2c1c(-c1cccc(OCc3ccccc3)c1)cn2C1CC(CN2CCCC2)C1` (stereo not drawn) [ADW]?
**A.** tumor burden ([1]; FIG. 19): reduction of tumor burden; survival as compared to untreated control ([1]; FIG. 20): positively correlated with survival
